Test results: ChEMBL document CHEMBL1143426, “In vivo efficacy of ceftaroline (PPI-0903), a new broad-spectrum cephalosporin, compared with linezolid and vancomycin against methicillin-resistant and vancomycin-intermediate Staphylococcus aureus in a rabbit endocarditis model” (Antimicrob Agents Chemother, 2007)
Values after ≈ are worked out from the molar mass of the structure shown. Active and inactive are the calls of the source. The rule behind the calls is not given here.

Key:
Staphylococcus aureus [1] = assay: Bactericidal activity against methicillin-resistant Staphylococcus aureus SA2 in rabbit endocarditis model assessed as growth inhibition at 58 mg/kg infused every 12 hrs for 4 days measured after 48 hrs; assay type: functional; conditions: read-out: GI
Oryctolagus cuniculus = assay: Plasma concentration in rabbit at 58 mg/kg infused every 12 hrs for 4 days; assay type: ADME, organism-based; set-up: dose 58 mg/kg; conditions: in vivo, iv
Staphylococcus aureus [2] = assay: Bactericidal activity against vancomycin-intermediate Staphylococcus aureus by microdilution technique; assay type: functional
Staphylococcus aureus [3] = assay: Bactericidal activity against methicillin-resistant Staphylococcus aureus SA2 in rabbit endocarditis model assessed per gram of aortic vegetation at 58 mg/kg infused every 12 hrs for 4 days measured after 48 hrs; assay type: functional, Aorta
Staphylococcus aureus [4] = assay: Bactericidal activity against methicillin-resistant Staphylococcus aureus SA2 by microdilution technique; assay type: functional
Staphylococcus aureus [5] = assay: Bactericidal activity against vancomycin-intermediate Staphylococcus aureus in rabbit endocarditis model assessed per gram of aortic vegetation at 58 mg/kg infused every 12 hrs for 4 days measured after 48 hrs; assay type: functional, Aorta
Staphylococcus aureus [6] = assay: Bactericidal activity against vancomycin-intermediate Staphylococcus aureus in rabbit endocarditis model assessed as growth inhibition at 58 mg/kg infused every 12 hrs for 4 days measured after 48 hrs; assay type: functional; conditions: read-out: GI
[7] = AUC in rabbit plasma at 58 mg/kg infused every 12 hrs for 4 days; assay type: ADME, organism-based, Oryctolagus cuniculus; set-up: dose 58 mg/kg; conditions: iv
[8] = Half life in rabbit plasma at 58 mg/kg infused every 12 hrs for 4 days; assay type: ADME, organism-based, Oryctolagus cuniculus; set-up: dose 58 mg/kg; conditions: iv
[9] = Cmax in rabbit plasma at 58 mg/kg infused every 12 hrs for 4 days; assay type: ADME, organism-based, Oryctolagus cuniculus; set-up: dose 58 mg/kg; conditions: iv
Staphylococcus aureus [10] = assay: %T>MIC in vancomycin-intermediate Staphylococcus aureus in rabbit endocarditis model; conditions: in vivo
Staphylococcus aureus [11] = assay: %T>MIC in methicillin-resistant Staphylococcus aureus SA2 in rabbit endocarditis model; conditions: in vivo
Staphylococcus aureus [12] = assay: Bactericidal activity against vancomycin-intermediate Staphylococcus aureus in rabbit endocarditis model at 4 times MIC after 48 hrs; assay type: functional, organism-based
[13] = Protein binding in rabbit plasma; assay type: ADME, cell-free, Oryctolagus cuniculus; conditions: read-out: PPB
Citrobacter freundii = assay: Antibacterial activity against Citrobacter freundii; assay type: functional, organism-based
Klebsiella pneumoniae = assay: Antibacterial activity against Klebsiella pneumoniae; assay type: functional, organism-based
Haemophilus influenzae = assay: Antibacterial activity against Haemophilus influenzae; assay type: functional, organism-based
Pseudomonas aeruginosa = assay: Antibacterial activity against Pseudomonas aeruginosa; assay type: functional
Moraxella catarrhalis = assay: Antibacterial activity against Moraxella catarrhalis; assay type: functional, organism-based
[14] = Protein binding in human plasma; assay type: ADME, cell-free; conditions: read-out: PPB
Staphylococcus aureus [15] = assay: Bactericidal activity against methicillin-resistant Staphylococcus aureus SA2 in rabbit endocarditis model at 4 times MIC after 48 hrs; assay type: functional, organism-based
Morganella morganii = assay: Antibacterial activity against Morganella morganii; assay type: functional, organism-based
Escherichia coli = assay: Antibacterial activity against Escherichia coli; assay type: functional, organism-based
Staphylococcus aureus [16] = assay: %T>MIC in methicillin-resistant Staphylococcus aureus in mouse thigh/lung infection model; assay type: ADME, organism-based; conditions: in vivo
Neisseria meningitidis = assay: Antibacterial activity against Neisseria meningitidis; assay type: functional, organism-based

Structure (SMILES) | inhibition in vivo at 58 mg/kg (Staphylococcus aureus [1]) [%] | MBC (Staphylococcus aureus [2]) [µg/mL] | log10cfu (Staphylococcus aureus [3]) | MBC (Staphylococcus aureus [4]) [µg/mL] | log10cfu (Staphylococcus aureus [5]) | inhibition in vivo at 58 mg/kg (Staphylococcus aureus [6]) [%] | MIC (Staphylococcus aureus [2]) [µg/mL] | MIC (Staphylococcus aureus [4]) [µg/mL] | also measured
CN[C@H](CC(C)C)C(=O)N[C@H]1C(=O)N[C@@H](CC(N)=O)C(=O)N[C@H]2C(=O)N[C@H]3C(=O)N[C@H](C(=O)N[C@H](C(=O)O)c4cc(O)cc(O)c4-c4cc3ccc4O)[C@H](O)c3ccc(c(Cl)c3)Oc3cc2cc(c3O[C@@H]2O[C@H](CO)[C@@H](O)[C@H](O)[C@H]2O[C@H]2C[C@](C)(N)[C@H](O)[C@H](C)O2)Oc2ccc(cc2Cl)[C@H]1O [VANCOMYCIN] | 67 | 8 (≈ 5.52 µM) | 2.7 | 2 (≈ 1.38 µM) | 6.7 | 0 | – | – | Cp (Oryctolagus cuniculus): 23100 ng/mL
CC(=O)NC[C@H]1CN(c2ccc(N3CCOCC3)c(F)c2)C(=O)O1 [LINEZOLID] | 0 | 16 (≈ 47.4 µM) | 7.1 | > 64 | 6.9 | 0 | 1 (≈ 2.96 µM) | – | AUC [7]: 137 µg·h/mL; half-life [8]: 3.3 h; Cmax [9]: 19600 ng/mL
COc1cccc(OC)c1C(=O)N[C@@H]1C(=O)N2[C@@H]1SC(C)(C)[C@@H]2C(=O)O [METHICILLIN] | – | – | – | – | – | – | > 1020 | 128 (≈ 336 µM) | –
CCO/N=C(\C(=O)N[C@@H]1C(=O)N2C(C(=O)[O-])=C(Sc3nc(-c4cc[n+](C)cc4)cs3)CS[C@H]12)c1nsc(NP(=O)(O)O)n1 [CEFTAROLINE FOSAMIL] | 90 | 2 (≈ 2.92 µM) | 2.5 | 1 (≈ 1.46 µM) | 3 | 60 | 2 (≈ 2.92 µM) | 1 (≈ 1.46 µM) | T>MIC (Staphylococcus aureus [10]): 62%; T>MIC (Staphylococcus aureus [11]): 75%; Activity (Staphylococcus aureus [12]): Active; fraction unbound [13]: > 0.8; Activity (Citrobacter freundii): Active; Activity (Klebsiella pneumoniae): Active; Activity (Haemophilus influenzae): Active; MIC90 (Pseudomonas aeruginosa): > 32 µg/mL; Activity (Moraxella catarrhalis): Active; fraction unbound [14]: > 0.8; Activity (Staphylococcus aureus [15]): Active; Activity (Morganella morganii): Active; Activity (Escherichia coli): Active; T>MIC (Staphylococcus aureus [16]): 33%; Activity (Neisseria meningitidis): Active
